The term IC50 denotes the concentration at which inhibition is half-maximal. What is called Ki is a measure of affinity in units of concentration, obtained from inhibition or displacement.

The target in one assay is T1, matriptase (Homo sapiens, UniProt Q9Y5Y6).
T1 construct: Charles Craik, UCSF (obtained from another laboratory)
T1 sequence (Q9Y5Y6 615-855 limits assumed): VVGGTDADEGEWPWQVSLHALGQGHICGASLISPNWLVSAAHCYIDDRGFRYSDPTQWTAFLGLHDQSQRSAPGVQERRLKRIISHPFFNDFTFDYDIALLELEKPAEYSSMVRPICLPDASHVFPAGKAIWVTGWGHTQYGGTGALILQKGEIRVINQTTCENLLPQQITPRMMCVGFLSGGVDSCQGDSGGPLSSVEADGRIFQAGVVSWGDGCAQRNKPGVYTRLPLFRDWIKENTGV
In words: Fluorescent kinetic enzyme inhibitor assay of matriptase. Type of assay: biochemical. The settings on record: for IC50: Table 4.1; for Ki: Table 4.2, Boc-QAR-AMC substrate. The gist of the method: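 Fluorescence (ex 380/em 460 nm) followed kinetically at room temperature; IC50 from four-parameter fit of mean velocity versus concentration, averaged over three experiments.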

In assay [1] the target is T2, HGFA (Homo sapiens, UniProt Q04756).
T2 construct: His6 tag (N); seven amino acid spacer and seven amino acid TEV cleavage site (N); Honey Bee melittin signal peptide (N); made in house; host or cells: High 5 insect cells (baculovirus; virus raised in Sf9)
T2 sequence (Q04756 373-655): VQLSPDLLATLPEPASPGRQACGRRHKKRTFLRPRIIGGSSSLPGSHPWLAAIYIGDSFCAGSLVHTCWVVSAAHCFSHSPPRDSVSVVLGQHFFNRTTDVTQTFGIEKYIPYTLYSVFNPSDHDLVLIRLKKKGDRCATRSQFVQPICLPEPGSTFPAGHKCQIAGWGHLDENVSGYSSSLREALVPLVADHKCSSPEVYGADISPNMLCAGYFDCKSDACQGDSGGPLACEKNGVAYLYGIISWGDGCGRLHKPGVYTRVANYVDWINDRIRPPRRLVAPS
Put plainly: Biochemical assay for proteolysis of pro-MSP by HGFA. The settings on record: immunoblot; inhibitors 0-12.5 μM. How it is done:
In order to determine efficiency of our recombinant HGFA we performed a concentration response of HGFA using a fixed concentration of pro-HGF and pro-MSP.
After 30 minutes incubation at room temperature (25° C.), 25 ng of pro-HGF (R&D Systems, NKG011306A) was added. […] Proteins were transferred to Millipore Immobilon-P membranes (Billerica, Mass.) and then immunoblotted at 4° C. with anti-HGF antibody (R&D Systems, AF-294-NA) and HRP conjugated donkey anti-goat IgG (Santa Cruz, SC-2020) diluted 1:500 and 1:5000 in 5% milk/TBST (5% Carnation nonfat dried milk/10 mM Tris, 150 mM NaCl, 0.05% TWEEN 20, pH 8.0), respectively. Membranes were washed in TBST, immersed in Millipore Luminata Crescendo Westem-HRP Substrate for 5 minutes, and then exposures made on a BioRad ChemiDoc MP Imaging System (Hercules, Calif.). For pro-MSP proteolysis assays, the procedures were similar, except that the HGFA concentration was 75 nM, pro-MSP (R&D Systems ZN081306A) concentration was 50 ng per reaction, and 1:500 dilution of anti-MSP antibody (R&D Systems, AF352) was used for MSP detection during immunoblotting.
Background: A western blot detects proteins with antibodies after separation by electrophoresis.

For assay [2], the target named is T2, HGFA. In words: Fluorescent kinetic enzyme inhibitor assay of HGFA. Type of assay: biochemical. The gist of the method: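 Recombinant His-tagged HGFA residues 373-655 from insect cells, with substrate at Km. Inhibitors in 11-point dilutions, 0-20 μM final, 2% DMSO, fluorescence (ex 380/em 460 nm) followed over time at room temperature. IC50 from four-parameter fit of mean velocity, average of three experiments.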

Where [3] appears, read: Table 4.2, Boc-QLR-AMC substrate, read-out: HGFA Ki.

Read-outs that look alike come from different tables or passages of the source.

As for `CC(=O)N[C@@H](CCCCN)C(=O)N[C@@H](CCC(N)=O)C(=O)N[C@@H](CC(C)C)C(=O)N[C@@H](CCCNC(=N)N)C(=O)c1nccs1` [Compound 5, Ac-KQLR(SEQ ID NO: 1)-kt], on matriptase, the “fold more potent for matriptase versus HGFA” value is on record as 50 fold, the IC50 is 5 nM and the Ki is 1.6 nM. For the same molecule, at HGFA [1], the “inhibition of pro-MSP proteolysis by HGFA” value (shortened to “inhibition”) is on record as “dose-dependent inhibition”. Moreover, on HGFA [2] (setting [3]), the Ki is 70 nM. The Ki at HGFA [2] (read-out: Ki for HGFA) was determined as 53 nM.

Take `CC(=O)N[C@@H](CCCCN)C(=O)N[C@@H](CCC(N)=O)C(=O)N[C@@H](Cc1ccccc1)C(=O)N[C@@H](CCCNC(=N)N)C(=O)c1nccs1` [Compound 5c, Ac-KQFR(SEQ ID NO: 4)-kt]: the Ki at matriptase came to 0.69 nM; on HGFA [2] (setting [3]), 58 nM.

Regarding `CC(=O)N[C@@H](CCCNC(=N)N)C(=O)N[C@@H](CCC(N)=O)C(=O)N[C@@H](CC(C)C)C(=O)N[C@@H](CCCNC(=N)N)C(=O)c1nccs1` [Compound 5e, Ac-RQLR(SEQ ID NO: 6)-kt], the IC50 on matriptase is 1 nM. The Ki on HGFA [2] (setting [3]) came to 60 nM.

On to `CC(=O)N[C@@H](CCCCN)C(=O)N[C@@H](CCCNC(=N)N)C(=O)N[C@@H](CC(C)C)C(=O)N[C@@H](CCCNC(=N)N)C(=O)c1nccs1` [Compound 5g, Ac-KRLR(SEQ ID NO: 8)-kt], for which the IC50 at matriptase was 14 nM. For the same molecule, the “inhibition” value on HGFA [1] is reported as “dose-dependent inhibition”. Also, on HGFA [2] (setting [3]), the Ki is 12 nM.

With `CC(=O)N[C@@H](Cc1c[nH]c2ccccc12)C(=O)N[C@@H](CCCNC(=N)N)C(=O)N[C@@H](CC(C)C)C(=O)N[C@@H](CCCNC(=N)N)C(=O)c1nccs1` [Compound 5h, Ac-WRLR(SEQ ID NO: 9)-kt], the IC50 on matriptase was 31 nM. For the same molecule, on HGFA [1], the “inhibition” value is “dose-dependent inhibition”. The Ki on HGFA [2] (setting [3]) turned out to be 21 nM.

For `CC(=O)N[C@@H](CO)C(=O)N[C@@H](CCCCN)C(=O)N[C@@H](CC(C)C)C(=O)N[C@@H](CCCNC(=N)N)C(=O)c1nccs1` [Compound 6, Ac-SKLR(SEQ ID NO: 10)-kt], at matriptase, the “fold more potent for matriptase versus HGFA” value is “only slightly more potent” and the IC50 is 48 nM. Further, the Ki at HGFA [2] (read-out: Ki for HGFA) came to 81 nM.

As to `CC(=O)N[C@@H](CO)C(=O)N[C@@H](CCCCN)C(=O)N[C@@H](Cc1ccccc1)C(=O)N[C@@H](CCCNC(=N)N)C(=O)c1nccs1` [Compound 6c, Ac-SKFR(SEQ ID NO: 13)-kt], the IC50 on matriptase was found to be 34 nM. Further, the “selectivity among HGFA, matriptase and hepsin” value (from here on “selectivity among HGFA”) on HGFA [2] was “HGFA selectivity over both hepsin and matriptase”. Moreover, the Ki on HGFA [2] (setting [3]) came to 57 nM.

Turning to `CC(=O)N[C@@H](CO)C(=O)N[C@@H](CCCNC(=N)N)C(=O)N[C@@H](CC(C)C)C(=O)N[C@@H](CCCNC(=N)N)C(=O)c1nccs1` [Compound 6e, Ac-SRLR(SEQ ID NO: 15)-kt], the concentration for half-maximal inhibition (IC50) at matriptase amounted to 24 nM. For the same molecule, the “inhibition” value on HGFA [1] is “dose-dependent inhibition”. For the same molecule, the “selectivity among HGFA” value at HGFA [2] was “HGFA selectivity over both hepsin and matriptase”. Moreover, the Ki on HGFA [2] (setting [3]) is 24 nM.

In the case of `CC(=O)N[C@@H](CO)C(=O)N[C@@H](Cc1c[nH]c2ccccc12)C(=O)N[C@@H](CC(C)C)C(=O)N[C@@H](CCCNC(=N)N)C(=O)c1nccs1` [Compound 6g, Ac-SWLR(SEQ ID NO: 17)-kt], the IC50 at matriptase amounted to 175 nM. The “selectivity among HGFA” value on HGFA [2] is “HGFA selectivity over both hepsin and matriptase”. In addition, the Ki on HGFA [2] (setting [3]) turned out to be 63 nM; on HGFA [2] (read-out: Ki for HGFA) it was 66 nM.

Turning to `N=C(N)c1ccc2cc(OC(=O)c3ccc(N=C(N)N)cc3)ccc2c1` [Nafamostat, reference compound], the “inhibition” value at HGFA [1] is “dose-dependent inhibition”. For the same molecule, on HGFA [2] (setting [3]), the Ki was determined as 25 nM.
